The values that follow come from the OligoGym collection.

Several values for one entry are separate records, joined by “and”; a condition that tells them apart may be missing. Identical values can stand only once. HELM strings list units from the 5' end as sugar, base in round brackets, then linkage (d deoxyribose, r ribose, m 2'-O-methyl, p phosphodiester). Strings are as the collection lists them, not checked against the first reports. ss, as = sense and antisense strand; [s4r] = 4'-thioribose; [fl2r] = 2'-fluoro
Further: test system not given here.

The conditions of the series: siRNA.
The substance “RNA1{r(G)p.r(A)p.r(U)p.r(A)p.r(G)p.r(G)p.r(A)p.r(A)p.r(G)p.r(G)p.r(G)p.r(G)p.r(C)p.r(U)p.r(U)p.r(C)p.r(A)p.r(G)p.r(C)p.r(T)p.r(T)}|RNA2{r(G)p.m(C)p.m(U)p.r(G)p.r(A)p.r(A)p.r(G)p.m(C)p.m(C)p.m(C)p.m(C)p.m(U)p.m(U)p.m(C)p.m(C)p.m(U)p.r(A)p.m(U)p.m(C)p.r(T)p.r(T)}$$$RNA1{StrandType:ss}|RNA2{StrandType:as}$” yielded a target mRNA knockdown of 12%.
The result for “RNA1{r(A)p.r(A)p.r(A)p.r(C)p.[fl2r](C)p.[fl2r](A)p.r(G)p.r(G)p.[fl2r](A)p.r(A)p.r(G)p.[fl2r](G)p.r(G)p.r(G)p.r(A)p.r(A)p.r(A)p.r(U)p.r(C)p.r(T)p.r(T)}|RNA2{r(G)p.r(A)p.r(U)p.r(U)p.r(U)p.r(C)p.r(C)p.r(C)p.r(C)p.r(U)p.r(U)p.r(C)p.r(C)p.[fl2r](U)p.[fl2r](G)p.r(G)p.r(U)p.r(U)p.r(U)p.r(T)p.r(T)}$$$RNA1{StrandType:ss}|RNA2{StrandType:as}$” reads 61%; that for “RNA1{m(A)p.r(A)p.m(A)p.r(C)p.m(G)p.r(U)p.m(G)p.r(A)p.m(C)p.r(U)p.m(U)p.r(U)p.m(G)p.r(G)p.m(U)p.r(U)p.m(C)p.r(C)p.m(U)p.r(T)p.r(T)}|RNA2{r(A)p.m(G)p.m(G)p.r(A)p.r(A)p.r(C)p.r(C)p.r(A)p.r(A)p.r(A)p.m(G)p.r(U)p.r(C)p.r(A)p.r(C)p.m(G)p.r(U)p.r(U)p.r(U)p.r(T)p.r(T)}$$$RNA1{StrandType:ss}|RNA2{StrandType:as}$”, 37%.
Then “RNA1{r(A)p.r(U)p.r(C)p.r(C)p.m(U)p.r(G)p.m(C)p.r(A)p.r(G)p.r(A)p.r(A)p.m(G)p.r(A)p.r(A)p.r(G)p.r(C)p.r(C)p.r(U)p.r(C)p.r(T)p.r(T)}|RNA2{r(G)p.r(A)p.r(G)p.r(G)p.r(C)p.r(U)p.r(U)p.r(C)p.r(U)p.r(U)p.r(C)p.m(U)p.r(G)p.m(C)p.r(A)p.r(G)p.r(G)p.r(A)p.r(U)p.r(T)p.r(T)}$$$RNA1{StrandType:ss}|RNA2{StrandType:as}$”, with 50%; and “RNA1{[s4r](C)p.[s4r](G)p.[s4r](U)p.[s4r](A)p.[s4r](C)p.[s4r](G)p.r(C)p.r(G)p.r(G)p.r(A)p.r(A)p.r(U)p.r(A)p.r(C)p.r(U)p.r(U)p.r(C)p.r(G)p.r(A)p.r(T)p.r(T)}|RNA2{r(U)p.r(C)p.r(G)p.r(A)p.r(A)p.r(G)p.r(U)p.r(A)p.r(U)p.r(U)p.r(C)p.r(C)p.r(G)p.[s4r](C)p.[s4r](G)p.[s4r](U)p.[s4r](A)p.[s4r](C)p.[s4r](G)p.r(T)p.r(T)}$$$RNA1{StrandType:ss}|RNA2{StrandType:as}$”, with 47.8%.
Then “RNA1{[s4r](A)p.[s4r](A)p.[s4r](A)p.[s4r](C)p.[s4r](A)p.[s4r](U)p.r(G)p.r(C)p.r(A)p.r(G)p.r(A)p.r(A)p.r(A)p.[s4r](A)p.[s4r](U)p.[s4r](G)p.[s4r](C)p.[s4r](U)p.[s4r](G)p.r(T)p.r(T)}|RNA2{r(C)p.r(A)p.r(G)p.r(C)p.r(A)p.r(U)p.r(U)p.r(U)p.r(U)p.r(C)p.r(U)p.r(G)p.r(C)p.r(A)p.r(U)p.r(G)p.r(U)p.r(U)p.r(U)p.r(T)p.r(T)}$$$RNA1{StrandType:ss}|RNA2{StrandType:as}$”, with 75.4% and 87%; and “RNA1{m(G)p.r(A)p.m(C)p.r(A)p.m(A)p.r(G)p.m(G)p.r(G)p.m(A)p.r(A)p.m(G)p.r(G)p.m(U)p.r(U)p.m(A)p.r(G)p.m(C)p.r(C)p.m(U)p.r(T)p.r(T)}|RNA2{r(A)p.r(G)p.r(G)p.r(C)p.r(U)p.r(A)p.r(A)p.r(C)p.r(C)p.r(U)p.r(U)p.r(C)p.r(C)p.r(C)p.r(U)p.r(U)p.r(G)p.r(U)p.r(C)p.r(T)p.r(T)}$$$RNA1{StrandType:ss}|RNA2{StrandType:as}$”, with 34%.
“RNA1{r(C)p.r(G)p.r(A)p.r(G)p.r(U)p.r(G)p.r(U)p.r(C)p.r(U)p.r(A)p.r(A)p.r(C)p.r(G)p.r(G)p.r(G)p.r(A)p.r(G)p.r(C)p.r(C)p.r(T)p.r(T)}|RNA2{r(G)p.r(G)p.r(C)p.r(U)p.r(C)p.r(C)p.r(C)p.r(G)p.r(U)p.m(U)p.r(A)p.r(G)p.r(A)p.r(C)p.r(A)p.r(C)p.r(U)p.r(C)p.r(G)p.r(T)p.r(T)}$$$RNA1{StrandType:ss}|RNA2{StrandType:as}$” registered a target mRNA knockdown of 68%.
The result for “RNA1{[s4r](C)p.[s4r](G)p.r(U)p.r(A)p.r(C)p.r(G)p.r(C)p.r(G)p.r(G)p.r(A)p.r(A)p.r(U)p.r(A)p.r(C)p.r(U)p.r(U)p.r(C)p.r(G)p.r(A)p.r(T)p.r(T)}|RNA2{r(U)p.r(C)p.r(G)p.r(A)p.r(A)p.r(G)p.r(U)p.r(A)p.r(U)p.r(U)p.r(C)p.r(C)p.r(G)p.r(C)p.r(G)p.r(U)p.r(A)p.[s4r](C)p.[s4r](G)p.r(T)p.r(T)}$$$RNA1{StrandType:ss}|RNA2{StrandType:as}$” reads 91.3%.
The substance “RNA1{r(C)p.r(G)p.r(A)p.r(G)p.m(U)p.r(G)p.r(U)p.r(C)p.m(U)p.r(A)p.r(A)p.r(C)p.r(G)p.r(G)p.r(G)p.r(A)p.r(G)p.r(C)p.r(C)p.r(T)p.r(T)}|RNA2{r(G)p.r(G)p.r(C)p.r(U)p.r(C)p.r(C)p.r(C)p.r(G)p.r(U)p.m(U)p.r(A)p.r(G)p.r(A)p.m(C)p.r(A)p.r(C)p.r(U)p.r(C)p.r(G)p.r(T)p.r(T)}$$$RNA1{StrandType:ss}|RNA2{StrandType:as}$” showed a target mRNA knockdown of 65%.
In turn, “RNA1{[s4r](A)p.[s4r](A)p.[s4r](A)p.[s4r](C)p.r(A)p.r(U)p.r(G)p.r(C)p.r(A)p.r(G)p.r(A)p.r(A)p.r(A)p.r(A)p.r(U)p.r(G)p.r(C)p.r(U)p.r(G)p.r(T)p.r(T)}|RNA2{r(C)p.r(A)p.r(G)p.r(C)p.r(A)p.r(U)p.r(U)p.r(U)p.r(U)p.r(C)p.r(U)p.r(G)p.r(C)p.r(A)p.r(U)p.r(G)p.r(U)p.[s4r](U)p.[s4r](U)p.r(T)p.r(T)}$$$RNA1{StrandType:ss}|RNA2{StrandType:as}$” yielded a target mRNA knockdown of 76.5%.
The result for “RNA1{m(A)p.r(A)p.m(C)p.r(A)p.m(G)p.r(U)p.m(C)p.r(C)p.m(U)p.r(U)p.r(A)p.m(G)p.r(C)p.m(U)p.r(A)p.r(C)p.m(G)p.r(C)p.r(U)p.r(T)p.r(T)}|RNA2{r(A)p.r(G)p.r(C)p.r(G)p.r(U)p.r(A)p.r(G)p.r(C)p.r(U)p.r(A)p.r(A)p.r(G)p.r(G)p.r(A)p.r(C)p.r(U)p.r(G)p.r(U)p.r(U)p.r(T)p.r(T)}$$$RNA1{StrandType:ss}|RNA2{StrandType:as}$” reads 35%; that for “RNA1{r(A)p.r(A)p.r(C)p.r(C)p.m(C)p.r(A)p.r(A)p.r(A)p.r(G)p.r(G)p.r(G)p.m(G)p.r(A)p.r(G)p.r(U)p.m(U)p.r(G)p.r(C)p.r(U)p.r(T)p.r(T)}|RNA2{r(A)p.r(G)p.m(C)p.r(A)p.r(A)p.r(C)p.r(U)p.r(C)p.r(C)p.r(C)p.r(C)p.r(U)p.r(U)p.m(U)p.r(G)p.r(G)p.r(G)p.r(U)p.r(U)p.r(T)p.r(T)}$$$RNA1{StrandType:ss}|RNA2{StrandType:as}$”, 92%; that for “RNA1{[s4r](C)p.[s4r](G)p.[s4r](U)p.[s4r](A)p.r(C)p.r(G)p.r(C)p.r(G)p.r(G)p.r(A)p.r(A)p.r(U)p.r(A)p.r(C)p.r(U)p.r(U)p.r(C)p.r(G)p.r(A)p.r(T)p.r(T)}|RNA2{[s4r](U)p.[s4r](C)p.r(G)p.r(A)p.r(A)p.r(G)p.r(U)p.r(A)p.r(U)p.r(U)p.r(C)p.r(C)p.r(G)p.r(C)p.r(G)p.r(U)p.r(A)p.[s4r](C)p.[s4r](G)p.r(T)p.r(T)}$$$RNA1{StrandType:ss}|RNA2{StrandType:as}$”, 85.4%.
Take “RNA1{r(A)p.r(G)p.r(A)p.r(G)p.r(A)p.r(A)p.r(G)p.r(G)p.r(G)p.[fl2r](C)p.r(G)p.r(U)p.r(C)p.r(U)p.r(C)p.[fl2r](U)p.r(A)p.[fl2r](C)p.r(A)p.r(T)p.r(T)}|RNA2{[fl2r](U)p.r(G)p.[fl2r](U)p.r(A)p.r(G)p.r(A)p.r(G)p.r(A)p.r(C)p.r(G)p.r(C)p.r(C)p.r(C)p.r(U)p.r(U)p.r(C)p.r(U)p.r(C)p.r(U)p.r(T)p.r(T)}$$$RNA1{StrandType:ss}|RNA2{StrandType:as}$”: the target mRNA knockdown amounted to 71%.
Turning to “RNA1{r(A)p.m(G)p.r(A)p.m(U)p.r(G)p.m(U)p.m(U)p.m(C)p.m(U)p.m(C)p.r(G)p.m(U)p.r(A)p.r(A)p.m(G)p.r(G)p.r(A)p.m(C)p.r(G)p.r(T)p.r(T)}|RNA2{r(C)p.r(G)p.r(U)p.r(C)p.r(C)p.r(U)p.r(U)p.r(A)p.r(C)p.r(G)p.r(A)p.r(G)p.r(A)p.r(A)p.r(C)p.r(A)p.r(U)p.r(C)p.r(U)p.r(T)p.r(T)}$$$RNA1{StrandType:ss}|RNA2{StrandType:as}$”, the target mRNA knockdown was found to be 53%.
Then “RNA1{r(A)p.r(G)p.r(A)p.r(G)p.r(A)p.r(G)p.r(G)p.[fl2r](U)p.r(G)p.r(G)p.r(A)p.r(G)p.r(G)p.r(U)p.r(A)p.r(U)p.r(C)p.r(U)p.r(C)p.r(T)p.r(T)}|RNA2{r(G)p.r(A)p.r(G)p.r(A)p.[fl2r](U)p.r(A)p.r(C)p.r(C)p.r(U)p.r(C)p.r(C)p.r(A)p.r(C)p.r(C)p.r(U)p.r(C)p.r(U)p.r(C)p.r(U)p.r(T)p.r(T)}$$$RNA1{StrandType:ss}|RNA2{StrandType:as}$”, with 88%; and “RNA1{m(A)p.r(G)p.m(C)p.r(C)p.m(U)p.r(C)p.m(C)p.r(A)p.m(A)p.r(A)p.m(C)p.r(U)p.m(C)p.r(C)p.m(U)p.r(A)p.m(G)p.r(C)p.m(U)p.r(T)p.r(T)}|RNA2{r(A)p.r(G)p.m(C)p.r(U)p.r(A)p.r(G)p.r(G)p.r(A)p.r(G)p.r(U)p.r(U)p.r(U)p.r(G)p.r(G)p.r(A)p.r(G)p.r(G)p.m(C)p.r(U)p.r(T)p.r(T)}$$$RNA1{StrandType:ss}|RNA2{StrandType:as}$”, with 47%; and “RNA1{r(A)p.r(A)p.r(C)p.r(C)p.r(C)p.r(A)p.r(C)p.r(C)p.r(A)p.r(C)p.r(A)p.r(G)p.r(C)p.m(U)p.m(A)p.r(G)p.r(A)p.r(A)p.r(C)p.m(U)p.m(U)}|RNA2{r(A)p.r(A)p.r(G)p.r(U)p.r(U)p.r(C)p.m(U)p.m(A)p.r(G)p.r(C)p.r(U)p.r(G)p.r(U)p.r(G)p.r(G)p.r(U)p.r(G)p.r(G)p.r(G)p.r(U)p.r(U)}$$$RNA1{StrandType:ss}|RNA2{StrandType:as}$”, with 51%.
The result for “RNA1{m(G)p.r(G)p.m(A)p.r(A)p.m(G)p.r(U)p.m(A)p.r(A)p.m(G)p.r(G)p.m(A)p.r(C)p.m(C)p.r(A)p.m(G)p.r(A)p.m(G)p.r(A)p.m(C)p.r(T)p.r(T)}|RNA2{m(G)p.r(U)p.r(C)p.r(U)p.r(C)p.r(U)p.m(G)p.m(G)p.r(U)p.r(C)p.r(C)p.r(U)p.r(U)p.r(A)p.r(C)p.r(U)p.r(U)p.r(C)p.r(C)p.r(T)p.r(T)}$$$RNA1{StrandType:ss}|RNA2{StrandType:as}$” reads 23%.
